{
  "source": "patent US9192597B2",
  "about": "“Composition for inhibiting vascular aging comprising syringaresinol” (AMOREPACIFIC CORPORATION, priority 2011, dated 2015)",
  "key": {"SIRT1 gene": {"test_system": "SIRT1 gene", "experiment": "SIRT1 gene expression promoting effect in aged human vascular endothelial cells (RT-PCR)", "assay_type": "cell-based", "conditions": "aged human vascular endothelial cells (14 PDL to 40 PDL), 20, 50 or 100 μM every other day, vs DMSO; FIG. 2", "procedure": "The SIRT1 gene expression promoting effect of syringaresinol in aged human vascular endothelial cells was evaluated as follows.\nHuman vascular endothelial cells purchased from Lonza (Walkersville, Md., USA) were cultured using the endothelial cell growth medium EGM-2 SingleQuots (Lonza) in a 5% CO2 incubator until 70% confluency. […] The population doubling level (PDL) was calculated according to the following equation for each generation until the cell growth was stopped. The PDL value is higher in aged cells. PDL=(Log10 Y−Log10 X)/Log10 2\nY: number of cells at the end of the generation\nX: number of cells at the beginning of the generation\n14 PDL cells were treated with syringaresinol dissolved in DMSO at a concentration of 20, 50 or 100 μM every other day while inducing aging to 40 PDL cells. The cells of a negative control group were treated with DMSO of 1/1000 of the volume of the medium. The cells treated with each sample were washed 2 times with cold PBS and RNA was extracted using TRIzol reagent (Invitrogen). cDNA was synthesized from the extracted RNA (1 μg/μL) using a reverse transcription system (Promega). Subsequently, the expression pattern of the SIRT1 and GAPDH genes was measured using the synthesized cDNA and predesigned primers and probes (Applied Biosystems; SIRT1, Hs01009006_m1; GAPDH, Hs99999905_m1). […]"}, "telomerase": {"test_system": "telomerase", "experiment": "Telomerase activity in aged vascular endothelial cells (TeloTAGGG telomerase PCR ELISA Plus kit)", "assay_type": "cell-based, human", "conditions": "50 μM, compared to cells treated only with DMSO, FIG. 5", "procedure": "The aging of vascular endothelial cells was induced by treating with 50 μM syringaresinol or DMSO as control in substantially the same manner as in Test Example 1. The aged cells were washed with PBS and lysed using lysis buffer (Sigma), and the obtained protein was quantitated. Telomerase activity was evaluated using the TeloTAGGG telomerase PCR ELISA Plus kit (Roche Applied Science, Indianapolis, Ind., USA)."}, "PAI-1": {"test_system": "PAI-1", "experiment": "PAI-1 protein expression in aged vascular endothelial cells (Western blot)", "assay_type": "cell-based, human", "conditions": "50 μM, vs DMSO and young cells, FIG. 6", "procedure": "(§1) In order to evaluate whether syringaresinol can restore the declined function of aged vascular cells to that of young vascular cells, the aging of vascular endothelial cells was induced by treating with 50 μM syringaresinol or DMSO as control in substantially the same manner as in Test Example 1. […] As a result, cardiovascular diseases such as arteriosclerosis can occur easily. The cells treated with syringaresinol or DMSO were washed with PBS and lysed with lysis buffer (Sigma), and the supernatant was recovered. Then, protein present in the supernatant was quantitated using Protein Dye Reagent™ (Bio-Rad). 100 μg of the obtained protein was fractionated by size by electrophoresing on 8% SDS-PAGE and transferred onto PVDF membrane (Bio-Rad) for 12 hours with 50 V. Then, the membrane was blocked for 1 hour with 5% non-fat milk and treated with anti-eNOS, anti-PAI-1 and anti-actin antibodies, as primary antibodies, and horse radish peroxidase (HRP)-conjugated anti-rabbit IgG (Amersham) as secondary antibody, and reacted using the enhanced chemiluminescence (ECL) kit (Amersham). The reacted PVDF membrane exposed to X-ray Fuji film and developed to investigate the protein expression level."}, "[1]": {"test_system": "aged vascular endothelial cells (SA-β-gal)", "experiment": "Aging marker SA-β-gal staining in aged vascular endothelial cells (Cellular Senescence Assay kit)", "assay_type": "cell-based, human", "conditions": "50 μM, compared to cells treated only with DMSO", "procedure": "The aging of vascular endothelial cells was induced by treating with 50 μM syringaresinol in substantially the same manner as in Test Example 1. The aged cells were washed with PBS and stained at 37° C. for 16 hours using a fixative and a stain provided together with the Cellular Senescence Assay kit (Cell Biolabs, Inc., San Diego, Calif., USA). Next day, the cells were washed with PBS, overlaid with 20% glycerol solution and observed under a microscope. The number of the cells stained green was counted and the activity of the aging marker SA-β-gal was determined."}, "eNOS": {"test_system": "eNOS", "experiment": "eNOS protein expression in aged vascular endothelial cells (Western blot)", "assay_type": "cell-based, human", "conditions": "50 μM, vs DMSO and young cells, FIG. 6", "procedure": "as §1"}},
  "data": [
    {"smiles": "COc1cc(C2OCC3C(c4cc(OC)c(O)c(OC)c4)OCC23)cc(OC)c1O", "note": "(stereo not drawn) [syringaresinol]", "values": [
      {"measurement": "SIRT1 gene expression", "setting": "SIRT1 gene", "value": "increases the decreased SIRT1 expression in aged vascular endothelial cells in a concentration-dependent manner"},
      {"measurement": "increase of telomerase activity", "setting": "telomerase", "value": "about 30%"},
      {"measurement": "PAI-1 expression", "setting": "PAI-1", "value": "decreased PAI-1 expression comparable to that of young cells"},
      {"measurement": "number of green-stained (SA-β-gal) cells", "setting": "[1]; FIG. 3 and 4", "value": "remarkably smaller number of green-stained cells"},
      {"measurement": "decrease of SA-β-gal activity", "setting": "[1]; FIG. 4", "value": "~50", "unit": "%"},
      {"measurement": "eNOS expression", "setting": "eNOS", "value": "increased eNOS expression comparable to that of young cells"}
    ]}
  ]
}
